Experiment: recombinant barcode read abundance after kanamycin selection (control-corrected) (log10(CPM+1)); higher = more efficient recombination; sequences stand for … in AGTGCAGAGAAAATCGGCCAGTTTTCTCTGCCTGCAGTCCGCATGCCGT…AGATTTATGCAGCGGACTGCCTTTCTCCCAAAGTGATAAACCGGACAGTATCATGGACCGGTTTTCCCGGTAATCCGTATTTGCAAGGTTGGTTTCACT; site = the 11-nt target
Procedure, shortened: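 Targets and IS621 bridge RNA target-binding loops were paired in oligos, each with a promoter, a barcode and the J23119-driven first 104 bridge RNA bases. A vector carrying the remaining 73 bp and a T7-inducible recombinase received these by Gibson cloning, and the pool was co-electroporated into E. coli with a donor plasmid. Duplicate plates contained chloramphenicol/ampicillin LB agar (control) or chloramphenicol/ampicillin/kanamycin with 0.1 mM IPTG. Recombination efficiency comes from averaged, control-corrected counts per million of recombinant-junction barcodes, reported as log10(CPM+1).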
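Also: IS621 recombinase and bridge RNA in Escherichia coli cells.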

Sequence	recombinant barcode read abundance (log10)
TAGACATCTTGGGTTCTAACCTGTTGCTC (site TAGGCATCTGA)	0.0149
TAGACATCTTGGGTTCTAACCTGTTGCTC (site TAGTCATCTGA)	0.016
TAGACCTCTTGGGTTCTAACCTGTTGCCT (site AAGACCTCTAG)	0.113
TAGACCTCTTGGGTTCTAACCTGTTGCCT (site TAGACCTCTAG)	1.86
TAGACTACTTGGGTTCTAACCTGTTGCTT (site TAGACTACTAA)	0.0704
TAGACTACTTGGGTTCTAACCTGTTGCTT (site TAGACTACTCA)	0.0933
TAGACTACTTGGGTTCTAACCTGTTGCTT (site TAGACTACTGA)	0.0122
TAGACTACTTGGGTTCTAACCTGTTGCTT (site TAGACTACTTA)	0.137
TAGACTGCTTGGGTTCTAACCTGTTGCCT (site TAGACTGCTAG)	1.04
TAGACTGCTTGGGTTCTAACCTGTTGCCT (site TAGCCTGCTAG)	0.224
TAGACTGCTTGGGTTCTAACCTGTTGCCT (site TAGGCTGCTAG)	0.107
TAGACTGCTTGGGTTCTAACCTGTTGCCT (site TAGTCTGCTAG)	0.451
TAGAGGACTTGGGTTCTAACCTGTTGCAG (site TACAGGACTCT)	0.0593
TAGAGGACTTGGGTTCTAACCTGTTGCAG (site TAGAGGACTCT)	2.23
TAGATCGCTTGGGTTCTAACCTGTTGCAG (site TAGATCGCTCT)	1.44
TAGATCGCTTGGGTTCTAACCTGTTGCAG (site TAGGTCGCTAT)	0.266
TAGCACACTTGGGTTCTAACCTGTTGCCG (site TAGCACACTCG)	1.51
TAGCACACTTGGGTTCTAACCTGTTGCCG (site TCGCACACTCA)	0.0962
TAGCACCCTTGGGTTCTAACCTGTTGCCC (site TAGCACCCTAG)	0.681
TAGCACCCTTGGGTTCTAACCTGTTGCCC (site TAGCACCCTCG)	0.642
TAGCACCCTTGGGTTCTAACCTGTTGCCC (site TAGCACCCTGG)	1.69
TAGCACCCTTGGGTTCTAACCTGTTGCCC (site TAGCACCCTTG)	0.0312

Sequence	recombinant barcode read abundance (log10)
TAGCAGACTTGGGTTCTAACCTGTTGCCT (site TAGCAGACTAG)	1.45
TAGCAGACTTGGGTTCTAACCTGTTGCCT (site TAGCCGACTAG)	0.034
TAGCAGACTTGGGTTCTAACCTGTTGCCT (site TAGCGGACTAG)	0.0243
TAGCAGACTTGGGTTCTAACCTGTTGCCT (site TAGCTGACTAG)	0.0224
TAGCATACTTGGGTTCTAACCTGTTGCCG (site TAGCATACTAG)	0.271
TAGCATACTTGGGTTCTAACCTGTTGCCG (site TAGCATACTCG)	0.861
TAGCATACTTGGGTTCTAACCTGTTGCCG (site TAGCATACTGG)	0.06
TAGCATACTTGGGTTCTAACCTGTTGCCG (site TAGCATACTTG)	0.198
TAGCCACCTTGGGTTCTAACCTGTTGCCT (site AAGCCACCTAG)	0.151
TAGCCACCTTGGGTTCTAACCTGTTGCCT (site CAGCCACCTAG)	0.917
TAGCCACCTTGGGTTCTAACCTGTTGCCT (site GAGCCACCTAG)	0.0875
TAGCCACCTTGGGTTCTAACCTGTTGCCT (site TAGCCACCTAG)	1.94
TAGCCGACTTGGGTTCTAACCTGTTGCCT (site TAGCAGACTAG)	0.181
TAGCCGACTTGGGTTCTAACCTGTTGCCT (site TAGCCGACTAG)	1.59
TAGCCGACTTGGGTTCTAACCTGTTGCCT (site TAGCGGACTAG)	0.251
TAGCCGACTTGGGTTCTAACCTGTTGCCT (site TAGCTGACTAG)	0.0182
TAGCCGACTTGGGTTCTAACCTGTTGCTT (site TAGACGACTAA)	0.131
TAGCCGACTTGGGTTCTAACCTGTTGCTT (site TAGCCGACTAA)	0.999
TAGCCGACTTGGGTTCTAACCTGTTGCTT (site TAGGCGACTAA)	0.309
TAGCCGACTTGGGTTCTAACCTGTTGCTT (site TAGTCGACTAA)	0.242
TAGCCGTCTTGGGTTCTAACCTGTTGCAC (site TAGACGACTGT)	0.0911
TAGCCGTCTTGGGTTCTAACCTGTTGCAC (site TAGCCGTCTGT)	1.4

Sequence	recombinant barcode read abundance (log10)
TAGCCTTCTTGGGTTCTAACCTGTTGCTG (site TAGCCTTCTCA)	1.02
TAGCCTTCTTGGGTTCTAACCTGTTGCTG (site TAGCCTTCTTA)	0.252
TAGCTAGCTTGGGTTCTAACCTGTTGCGT (site GCTTACCCTTA)	0.0618
TAGCTAGCTTGGGTTCTAACCTGTTGCGT (site TAGCTAGCTAC)	1.62
TAGCTCACTTGGGTTCTAACCTGTTGCAT (site TAGATCACTAT)	0.0546
TAGCTCACTTGGGTTCTAACCTGTTGCAT (site TAGCTCACTAT)	1.17
TAGCTCACTTGGGTTCTAACCTGTTGCAT (site TAGGTCACTAT)	0.181
TAGCTCACTTGGGTTCTAACCTGTTGCAT (site TAGTTCACTAT)	0.307
TAGGAACCTTGGGTTCTAACCTGTTGCCT (site AAGGAACCTAG)	0.7
TAGGAACCTTGGGTTCTAACCTGTTGCCT (site CAGGAACCTAG)	0.649
TAGGAACCTTGGGTTCTAACCTGTTGCCT (site GAGGAACCTAG)	0.0651
TAGGAACCTTGGGTTCTAACCTGTTGCCT (site TAGGAACCTAG)	2.63
TAGGACACTTGGGTTCTAACCTGTTGCCA (site TAGGACACTTG)	1.86
TAGGACACTTGGGTTCTAACCTGTTGCCA (site TCGGATACTTG)	0.198
TAGGACACTTGGGTTCTAACCTGTTGCGT (site TAGGAAACTAC)	0.378
TAGGACACTTGGGTTCTAACCTGTTGCGT (site TAGGACACTAC)	2.8
TAGGACACTTGGGTTCTAACCTGTTGCGT (site TAGGAGACTAC)	0.1
TAGGACACTTGGGTTCTAACCTGTTGCGT (site TAGGATACTAC)	0.295
TAGGACGCTTGGGTTCTAACCTGTTGCCT (site TAAGACGCTAG)	1.76
TAGGACGCTTGGGTTCTAACCTGTTGCCT (site TACGACGCTAG)	0.114
TAGGACGCTTGGGTTCTAACCTGTTGCCT (site TAGGACGCTAG)	2.53
TAGGACGCTTGGGTTCTAACCTGTTGCCT (site TATGACGCTAG)	0.286

Sequence	recombinant barcode read abundance (log10)
TAGGATGCTTGGGTTCTAACCTGTTGCGT (site TAGGATGCTAC)	2.66
TAGGATGCTTGGGTTCTAACCTGTTGCGT (site TAGGATTCTAC)	0.248
TAGGCCACTTGGGTTCTAACCTGTTGCAT (site TAGGCCACTAA)	0.071
TAGGCCACTTGGGTTCTAACCTGTTGCAT (site TAGGCCACTAC)	0.0809
TAGGCCACTTGGGTTCTAACCTGTTGCAT (site TAGGCCACTAG)	0.294
TAGGCCACTTGGGTTCTAACCTGTTGCAT (site TAGGCCACTAT)	1.39
TAGGCCACTTGGGTTCTAACCTGTTGCGT (site TAGGCCACTAA)	0.522
TAGGCCACTTGGGTTCTAACCTGTTGCGT (site TAGGCCACTAC)	2.85
TAGGCCACTTGGGTTCTAACCTGTTGCGT (site TAGGCCACTAG)	0.0599
TAGGCCACTTGGGTTCTAACCTGTTGCGT (site TAGGCCACTAT)	1.7
TAGGCGCCTTGGGTTCTAACCTGTTGCTT (site TAGGCGCCTAA)	1.03
TAGGCGCCTTGGGTTCTAACCTGTTGCTT (site TAGGCGCCTAC)	0.263
TAGGCGCCTTGGGTTCTAACCTGTTGCTT (site TAGGCGCCTAG)	0.193
TAGGCGCCTTGGGTTCTAACCTGTTGCTT (site TAGGCGCCTAT)	0.0771
TAGGCTCCTTGGGTTCTAACCTGTTGCAT (site TAGGCTCCTAT)	1.19
TAGGCTCCTTGGGTTCTAACCTGTTGCAT (site TAGGCTCCTCT)	0.0701
TAGGCTCCTTGGGTTCTAACCTGTTGCAT (site TAGGCTCCTGT)	0.0892
TAGGCTCCTTGGGTTCTAACCTGTTGCAT (site TAGGCTCCTTT)	0.0761
TAGGGCACTTGGGTTCTAACCTGTTGCTG (site TAGGGCACTCA)	2.1
TAGGGCACTTGGGTTCTAACCTGTTGCTG (site TAGGGCACTCG)	0.888

From the supplement of paper PMC11208160
